Data on five molecules can be found in patent US20210101899A1, “INHIBITORS OF MUTANT ISOCITRATE DEHYDROGENASES AND COMPOSITIONS AND METHODS THEREOF” (IsoCure Biosciences Inc., priority 2016, published 2021).

Holding throughout (format): biochemical
One assay concerns the target IDH1 (R132C) (Homo sapiens, UniProt O75874, R132C). As to the kind of experiment: IDH enzyme assay, NADPH depletion by diaphorase/resazurin coupled detection. As to conditions: pre-incubated with enzyme for 1 h at room temperature; 500 μM a-Ketoglutarate+15 μM NADPH; 10-dose, 3-fold dilution from 10 μM; read-out: Compound IC50 (nM) IDH1 (R132C). As to the method:
(§1) Compounds were tested against 3 enzymes, as provided below. Compounds were tested in 10-dose IC50 mode with 3-fold serial dilution at a starting concentration of 10 μM. Control Compounds were tested in 10-dose IC50 mode with 3-fold serial dilution starting at 1 mM or 10 mM. Assay Format: The production or depletion of NADPH by IDH enzymes was measured by diaphorase/resazurin coupled detection. Fluorescence measurement: Ex/Em=535/590 by EnVision. Compounds were pre-incubated with enzyme for 1 h at room temperature. Standard substrate: 1500 μM a-Ketoglutarate+15 μM NADPH for IDH1 (R132H). 500 μM a-Ketoglutarate+15 μM NADPH for IDH1 (R132C). 65 μM Isocitrate+50 μM NADP for IDH1.
(The colour change of resazurin is a common sign of viable cells or microbes.)

The target in another assay is IDH1 (R132H) (Homo sapiens, UniProt O75874, R132H). The assay is described as above. As to conditions: pre-incubated with enzyme for 1 h at room temperature; 1500 μM a-Ketoglutarate+15 μM NADPH; 10-dose, 3-fold dilution from 10 μM; read-out: Compound IC50 (nM) IDH1 (R132H). The procedure: as §1
IDH1 (R132H), sequence (O75874 whole entry R132H): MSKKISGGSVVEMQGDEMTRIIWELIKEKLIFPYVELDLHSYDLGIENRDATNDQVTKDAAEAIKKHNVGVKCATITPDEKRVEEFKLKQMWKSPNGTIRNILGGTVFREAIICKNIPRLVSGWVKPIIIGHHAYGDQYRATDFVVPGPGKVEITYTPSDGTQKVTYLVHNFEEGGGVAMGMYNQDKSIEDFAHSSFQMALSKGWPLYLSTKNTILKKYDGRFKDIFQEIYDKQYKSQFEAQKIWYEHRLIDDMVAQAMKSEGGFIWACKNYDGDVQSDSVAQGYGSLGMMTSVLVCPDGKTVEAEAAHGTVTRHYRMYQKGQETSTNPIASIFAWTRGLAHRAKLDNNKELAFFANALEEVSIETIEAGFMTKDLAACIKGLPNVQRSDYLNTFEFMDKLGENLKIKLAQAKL
The next assay has as its target IDH1 (Homo sapiens, UniProt O75874). As to the kind of experiment: IDH enzyme assay, NADPH production by diaphorase/resazurin coupled detection. Conditions: IDH1 WT; pre-incubated with enzyme for 1 h at room temperature; 65 μM Isocitrate+50 μM NADP; 10-dose, 3-fold dilution from 10 μM; read-out: Compound IC50 (nM) IDH1. The procedure: as §1

A value given as a limit tells only on which side of the number the result lay.

IDH1, sequence (O75874 whole entry): as the sequence (O75874 whole entry R132H) above, with H132R counted along it
IDH1 (R132C), sequence (O75874 whole entry R132C): as the sequence (O75874 whole entry R132H) above, with H132C counted along it

Consider `C=CC(=O)Nc1cc(Cn2nc(C(=O)Nc3cccc(C)c3)c3c2C(C)CN(C(=O)c2ccc[nH]2)C3)ccc1F` (stereo not drawn) [ISO-2-1, 1-(3-acrylamido-4-fluorobenzyl)-7-methyl-5-(1H-pyrrole-2-carbonyl)-N-(m-tolyl)-4,5,6,7-tetrahydro-1H-pyrazolo[4,3-c]pyridine-3-carboxamide], for which the IC50 on IDH1 (R132C) was 35 nM; at IDH1 (R132H), 18 nM; at IDH1, more than 10000 nM.

For the molecule `C=CC(=O)Nc1ccc(NC(=O)c2nn(Cc3ccc(F)cc3)c3c2CN(C(=O)c2ccc[nH]2)C[C@H]3C)cc1` [ISO-2-25-R], the figures for the IC50 at IDH1 (R132C), at IDH1 (R132H) and on IDH1 were 21 nM, 10 nM and 2140 nM, respectively.

As for `C=CC(=O)Nc1cc(Cn2nc(C(=O)Nc3cccc([C@H](C)O)c3)c3c2C(C)CN(C(=O)c2ccc[nH]2)C3)ccc1F` (stereo partly drawn) [ISO-2-3, 1-(3-acrylamido-4-fluorobenzyl)-N-(3-((S)-1-hydroxyethyl)phenyl)-7-methyl-5-(1H-pyrrole-2-carbonyl)-4,5,6,7-tetrahydro-1H-pyrazolo[4,3-c]pyridine-3-carboxamide], the IC50 on IDH1 (R132C) is 77 nM; on IDH1 (R132H), 34 nM; on IDH1 it was not below 10000 nM.

`C=CC(=O)N1CCCC(NC(=O)c2nn(Cc3ccc(F)cc3)c3c2CN(C(=O)c2ccc[nH]2)CC3C)C1` (stereo not drawn) [ISO-2-6, N-(1-acryloylpiperidin-3-yl)-1-(4-fluorobenzyl)-7-methyl-5-(1H-pyrrole-2-carbonyl)-4,5,6,7-tetrahydro-1H-pyrazolo[4,3-c]pyridine-3-carboxamide]: the IC50 on IDH1 (R132C), on IDH1 (R132H) and on IDH1 was more than 10000 nM in each case.

In the case of `C=CC(=O)Nc1ccc(Cn2nc(C(=O)Nc3cccc(C)c3)c3c2C(C)CN(C(=O)c2ccc[nH]2)C3)cc1C` (stereo not drawn) [ISO-2-28, 1-(4-acrylamido-3-methylbenzyl)-7-methyl-5-(1H-pyrrole-2-carbonyl)-N-(m-tolyl)-4,5,6,7-tetrahydro-1H-pyrazolo[4,3-c]pyridine-3-carboxamide], the IC50 on IDH1 (R132C) was 5550 nM; at IDH1 (R132H) it was 149 nM; on IDH1, more than 10000 nM.

For orientation: IC50 means the concentration that inhibits the measured activity by half.
